Measurements as given in patent US20080051466A1, “Isoalpha acid based protein kinase modulation cancer treatment” (Metaproteomics, LLC, priority 2006, published 2008).

Legend:
Experiment in all cases: KinaseProfiler Assay
Assay type in all cases: biochemical
[1] = target: T1, JAK3 (Homo sapiens, UniProt P52333); details: read-out: JAK3, % of Control
T1 sequence (P52333 1-1124): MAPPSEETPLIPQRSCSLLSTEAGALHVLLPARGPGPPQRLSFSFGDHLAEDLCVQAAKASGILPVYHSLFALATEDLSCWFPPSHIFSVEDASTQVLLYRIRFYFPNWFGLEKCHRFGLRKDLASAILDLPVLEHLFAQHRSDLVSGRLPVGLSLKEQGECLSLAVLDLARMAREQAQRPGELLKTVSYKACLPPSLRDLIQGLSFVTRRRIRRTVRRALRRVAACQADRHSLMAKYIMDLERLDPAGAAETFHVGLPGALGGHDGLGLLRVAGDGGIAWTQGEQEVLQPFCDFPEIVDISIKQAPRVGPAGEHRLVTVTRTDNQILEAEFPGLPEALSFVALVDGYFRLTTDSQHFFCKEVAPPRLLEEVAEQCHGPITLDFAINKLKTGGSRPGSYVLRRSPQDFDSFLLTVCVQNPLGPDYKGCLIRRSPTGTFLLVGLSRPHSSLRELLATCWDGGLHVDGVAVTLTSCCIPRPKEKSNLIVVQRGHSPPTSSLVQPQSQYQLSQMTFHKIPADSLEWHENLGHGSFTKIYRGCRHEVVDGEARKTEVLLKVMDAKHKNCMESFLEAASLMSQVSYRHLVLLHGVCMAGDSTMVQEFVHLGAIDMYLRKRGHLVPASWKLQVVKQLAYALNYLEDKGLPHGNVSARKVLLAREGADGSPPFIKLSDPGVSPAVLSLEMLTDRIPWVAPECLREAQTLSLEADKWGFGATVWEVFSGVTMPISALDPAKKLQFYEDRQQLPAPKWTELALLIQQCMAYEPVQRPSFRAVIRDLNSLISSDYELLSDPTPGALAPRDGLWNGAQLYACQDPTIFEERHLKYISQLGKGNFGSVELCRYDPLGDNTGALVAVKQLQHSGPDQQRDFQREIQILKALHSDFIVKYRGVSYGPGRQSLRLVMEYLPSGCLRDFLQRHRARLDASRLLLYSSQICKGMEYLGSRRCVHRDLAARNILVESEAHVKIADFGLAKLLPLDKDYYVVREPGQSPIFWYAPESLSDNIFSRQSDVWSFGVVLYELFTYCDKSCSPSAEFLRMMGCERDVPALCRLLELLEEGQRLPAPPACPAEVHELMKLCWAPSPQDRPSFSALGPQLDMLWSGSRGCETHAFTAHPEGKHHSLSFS

[2] = target: MAPKAP-K2 (Homo sapiens, UniProt P49137); details: read-out: MAPKAP-K2, % of Control
Chain of MAPKAP-K2 (P49137 whole entry): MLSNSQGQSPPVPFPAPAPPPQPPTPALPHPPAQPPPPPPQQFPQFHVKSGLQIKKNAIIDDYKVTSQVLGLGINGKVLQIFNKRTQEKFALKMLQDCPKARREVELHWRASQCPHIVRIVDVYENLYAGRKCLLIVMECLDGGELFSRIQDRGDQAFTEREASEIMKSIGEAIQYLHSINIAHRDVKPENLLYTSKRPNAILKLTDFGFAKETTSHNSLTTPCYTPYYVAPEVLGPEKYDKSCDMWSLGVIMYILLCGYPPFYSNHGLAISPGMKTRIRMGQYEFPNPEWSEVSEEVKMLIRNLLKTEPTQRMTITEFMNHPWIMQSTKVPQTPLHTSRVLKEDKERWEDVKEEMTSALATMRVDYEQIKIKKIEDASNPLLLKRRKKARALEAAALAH

[3] = target: ALK4 (Homo sapiens, UniProt P36896); details: read-out: ALK4, % of Control
Chain of ALK4 (P36896 24-505): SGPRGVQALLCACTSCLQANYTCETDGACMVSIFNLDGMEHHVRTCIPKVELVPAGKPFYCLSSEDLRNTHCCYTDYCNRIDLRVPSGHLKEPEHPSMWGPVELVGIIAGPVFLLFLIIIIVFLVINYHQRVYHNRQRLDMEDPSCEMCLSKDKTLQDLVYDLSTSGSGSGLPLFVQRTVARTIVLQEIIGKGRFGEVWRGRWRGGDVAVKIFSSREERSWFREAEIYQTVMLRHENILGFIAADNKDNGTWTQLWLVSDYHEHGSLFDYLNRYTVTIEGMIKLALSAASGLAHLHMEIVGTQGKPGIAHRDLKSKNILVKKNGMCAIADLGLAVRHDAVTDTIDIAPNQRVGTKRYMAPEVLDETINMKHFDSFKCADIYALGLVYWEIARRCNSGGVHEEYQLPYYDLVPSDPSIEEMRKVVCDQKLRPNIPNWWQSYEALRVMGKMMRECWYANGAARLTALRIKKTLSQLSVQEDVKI

[4] = target: CDK2/cyclinE (Homo sapiens, UniProt P24941); details: read-out: CDK2/cyclinE, % of Control
[5] = target: Abl(T315I) (Homo sapiens, UniProt P00519, T315I); details: read-out: Abl(T315I), % of Control
[6] = target: T2, Aurora-A (Homo sapiens, UniProt O14965); details: read-out: Aurora-A, % of Control
T2 sequence (O14965 1-403): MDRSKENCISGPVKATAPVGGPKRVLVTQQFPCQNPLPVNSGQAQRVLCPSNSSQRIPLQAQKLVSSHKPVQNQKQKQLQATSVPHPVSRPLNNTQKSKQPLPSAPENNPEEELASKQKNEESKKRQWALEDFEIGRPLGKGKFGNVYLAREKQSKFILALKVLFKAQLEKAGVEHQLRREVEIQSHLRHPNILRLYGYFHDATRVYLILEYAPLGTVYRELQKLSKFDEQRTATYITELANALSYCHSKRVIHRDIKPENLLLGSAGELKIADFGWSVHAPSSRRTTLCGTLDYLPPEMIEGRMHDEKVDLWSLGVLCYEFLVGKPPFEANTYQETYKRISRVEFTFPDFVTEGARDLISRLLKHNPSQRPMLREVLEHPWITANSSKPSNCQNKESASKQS

[7] = target: EphA2 (Homo sapiens, UniProt P29317); details: read-out: EphA2, % of Control
Chain of EphA2 (P29317 24-976): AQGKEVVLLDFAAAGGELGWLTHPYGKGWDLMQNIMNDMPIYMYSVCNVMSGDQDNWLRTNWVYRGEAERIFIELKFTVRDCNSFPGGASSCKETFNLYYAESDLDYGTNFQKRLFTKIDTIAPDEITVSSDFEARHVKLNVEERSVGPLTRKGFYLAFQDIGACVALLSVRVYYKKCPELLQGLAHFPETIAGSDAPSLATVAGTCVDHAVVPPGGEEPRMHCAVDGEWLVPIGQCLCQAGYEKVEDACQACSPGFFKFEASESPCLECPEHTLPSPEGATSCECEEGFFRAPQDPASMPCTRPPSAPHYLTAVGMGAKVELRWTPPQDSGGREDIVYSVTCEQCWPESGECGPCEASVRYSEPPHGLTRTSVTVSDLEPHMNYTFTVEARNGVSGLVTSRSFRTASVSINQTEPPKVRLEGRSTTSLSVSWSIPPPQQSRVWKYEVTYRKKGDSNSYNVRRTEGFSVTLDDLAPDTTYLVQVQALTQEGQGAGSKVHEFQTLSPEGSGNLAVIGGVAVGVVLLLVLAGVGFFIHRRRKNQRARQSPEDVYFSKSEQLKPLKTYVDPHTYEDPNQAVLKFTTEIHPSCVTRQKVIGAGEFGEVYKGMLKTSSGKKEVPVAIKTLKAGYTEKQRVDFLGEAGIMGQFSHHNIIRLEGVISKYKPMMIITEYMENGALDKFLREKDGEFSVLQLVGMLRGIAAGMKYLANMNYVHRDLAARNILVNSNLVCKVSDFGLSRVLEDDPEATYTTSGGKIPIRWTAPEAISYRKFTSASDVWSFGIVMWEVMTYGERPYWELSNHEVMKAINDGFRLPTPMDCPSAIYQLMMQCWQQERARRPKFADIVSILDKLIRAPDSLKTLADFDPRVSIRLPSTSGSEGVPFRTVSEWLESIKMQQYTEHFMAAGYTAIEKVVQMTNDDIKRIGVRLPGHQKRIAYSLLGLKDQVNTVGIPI

[8] = target: T3, SGK2 (Homo sapiens, UniProt Q9HBY8); details: read-out: SGK2, % of Control
T3 sequence (Q9HBY8 1-367): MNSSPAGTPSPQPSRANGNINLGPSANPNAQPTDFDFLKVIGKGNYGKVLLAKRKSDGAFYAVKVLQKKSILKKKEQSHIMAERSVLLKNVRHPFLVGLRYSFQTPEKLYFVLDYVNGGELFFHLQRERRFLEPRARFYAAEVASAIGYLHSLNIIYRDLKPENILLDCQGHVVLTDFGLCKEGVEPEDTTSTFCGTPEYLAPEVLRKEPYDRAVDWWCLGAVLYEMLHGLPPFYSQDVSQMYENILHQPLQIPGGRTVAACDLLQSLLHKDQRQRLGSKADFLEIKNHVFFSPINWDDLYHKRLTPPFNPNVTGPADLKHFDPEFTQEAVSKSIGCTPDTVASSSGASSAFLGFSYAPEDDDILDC

- remaining activity at 1 µg/mL ([1]; 1 ug/ml): 104%
- remaining activity at 5 µg/mL ([1]; 5 ug/ml): 84%
- remaining activity at 25 µg/mL ([1]; 25 ug/ml): 17%
- remaining activity at 50 µg/mL ([1]; 50 ug/ml): 5%
- remaining activity at 1 µg/mL ([2]; 1 ug/ml): 99%
- remaining activity at 5 µg/mL ([2]; 5 ug/ml): 95%
- remaining activity at 25 µg/mL ([2]; 25 ug/ml): 6%
- remaining activity at 50 µg/mL ([2]; 50 ug/ml): 8%
- remaining activity at 1 µg/mL ([3]; 1 ug/ml): 116%
- remaining activity at 25 µg/mL ([3]; 25 ug/ml): 71%
- remaining activity at 1 µg/mL ([4]; 1 ug/ml): 82%
- remaining activity at 5 µg/mL ([4]; 5 ug/ml): 86%
- remaining activity at 25 µg/mL ([4]; 25 ug/ml): 18%
- remaining activity at 1 µg/mL ([5]; 1 ug/ml): 126%
- remaining activity at 5 µg/mL ([5]; 5 ug/ml): 115%
- remaining activity at 25 µg/mL ([5]; 25 ug/ml): 16%
- remaining activity at 5 µg/mL ([6]; 5 ug/ml): 27%
- remaining activity at 25 µg/mL ([6]; 25 ug/ml): 3%
- remaining activity at 50 µg/mL ([6]; 50 ug/ml): 8%
- remaining activity at 1 µg/mL ([7]; 1 ug/ml): 124%
- remaining activity at 50 µg/mL ([7]; 50 ug/ml): 52%
- remaining activity at 1 µg/mL ([8]; 1 ug/ml): 130%
- remaining activity at 5 µg/mL ([8]; 5 ug/ml): 110%
- remaining activity at 50 µg/mL ([8]; 50 ug/ml): -4%
SMILES: COc1cc(O)c(CC=C(C)C)c(O)c1C(=O)/C=C/c1ccc(O)cc1 [Xanthohumol, xanthohumol]
